This note sets out measurements from US12157746B2, “Tetrahydro-1H-pyrazino[2,1-a]isoindolylquinoline compounds for the treatment of autoimmune disease” (F. HOFFMANN-LA ROCHE AG, priority 2018, dated 2024).

Where only a bound is given, the exact number is not on record here.

The target in the test is T1, human TLR7 (Homo sapiens, UniProt Q9NYK1).
T1 sequence (Q9NYK1 27-1049): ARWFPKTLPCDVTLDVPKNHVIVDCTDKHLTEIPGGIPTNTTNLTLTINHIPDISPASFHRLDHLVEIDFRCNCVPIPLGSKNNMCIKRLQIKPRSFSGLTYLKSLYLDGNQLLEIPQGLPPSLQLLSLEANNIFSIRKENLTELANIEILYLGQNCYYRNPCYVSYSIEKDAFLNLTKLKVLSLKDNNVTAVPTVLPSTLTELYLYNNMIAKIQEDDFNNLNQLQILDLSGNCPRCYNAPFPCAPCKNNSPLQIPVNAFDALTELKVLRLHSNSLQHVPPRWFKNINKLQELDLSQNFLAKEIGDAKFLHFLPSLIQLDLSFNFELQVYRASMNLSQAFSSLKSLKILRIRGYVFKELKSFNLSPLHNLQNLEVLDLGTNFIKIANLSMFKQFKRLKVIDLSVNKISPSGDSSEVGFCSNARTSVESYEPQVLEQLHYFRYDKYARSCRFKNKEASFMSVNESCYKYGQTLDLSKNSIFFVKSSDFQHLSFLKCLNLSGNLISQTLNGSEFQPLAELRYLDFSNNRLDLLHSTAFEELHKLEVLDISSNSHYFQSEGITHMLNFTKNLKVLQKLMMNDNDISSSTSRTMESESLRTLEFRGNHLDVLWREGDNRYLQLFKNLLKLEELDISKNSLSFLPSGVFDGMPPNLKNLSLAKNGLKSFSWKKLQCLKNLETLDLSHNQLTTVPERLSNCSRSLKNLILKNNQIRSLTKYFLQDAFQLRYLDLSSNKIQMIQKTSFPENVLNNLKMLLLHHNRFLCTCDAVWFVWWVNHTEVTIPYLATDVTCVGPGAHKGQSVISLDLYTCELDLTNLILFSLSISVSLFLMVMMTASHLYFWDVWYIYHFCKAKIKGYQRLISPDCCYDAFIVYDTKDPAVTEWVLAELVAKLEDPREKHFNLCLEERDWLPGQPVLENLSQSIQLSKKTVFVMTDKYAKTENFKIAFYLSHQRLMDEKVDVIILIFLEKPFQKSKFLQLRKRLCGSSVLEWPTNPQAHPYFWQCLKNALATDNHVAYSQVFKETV
The test is described as follows: HEK293-Blue-hTLR-7 cells assay. The following applies: HEK293-Blue-hTLR7 cells, R848 stimulation, 20 hrs, SEAP reporter; read-out: HEK/hTLR7 IC50. In kind it is cell-based. The text has this:
HEK293-Blue-hTLR-7 Cells Assay:
A stable HEK293-Blue-hTLR-7 cell line was purchased from InvivoGen (Cat. #: hkb-htlr7, San Diego, California, USA). These cells were originally designed for studying the stimulation of human TLR7 by monitoring the activation of NF-κB. A SEAP (secreted embryonic alkaline phosphatase) reporter gene was placed under the control of the IFN-β minimal promoter fused to five NF-κB and AP-1-binding sites. The SEAP was induced by activating NF-κB and AP-1 via stimulating HEK-Blue hTLR7 cells with TLR7 ligands. Therefore the reporter expression was declined by TLR7 antagonist under the stimulation of a ligand, such as R848 (Resiquimod), for incubation of 20 hrs. The cell culture supernatant SEAP reporter activity was determined using QUANTI-Blue™ kit (Cat. #: rep-qb1, Invivogen, San Diego, Ca. USA) at a wavelength of 640 nm, a detection medium that turns purple or blue in the presence of alkaline phosphatase.
HEK293-Blue-hTLR7 cells were incubated at a density of 250,000˜450,000 cells/mL in a volume of 170 μL in a 96-well plate in Dulbecco's Modified Eagle's medium (DMEM) containing 4.5 g/L glucose, 50 U/mL penicillin, […], […], 2 mM L-glutamine, 10% (v/v) heat-inactivated fetal bovine serum with addition of 20 μL test compound 1n a serial dilution in the presence of final DMSO at 1% and 10 μL of 20 uM R848 in above DMEM, perform incubation under 37° C. in a CO2 incubator for 20 hrs. Then 20 μL of the supernatant from each well was incubated with 180 μL Quanti-blue substrate solution at 37° C. for 2 hrs and the absorbance was read at 620-655 nm using a spectrophotometer. The signaling pathway that TLR7 activation leads to downstream NF-κB activation has been widely accepted, and therefore similar reporter assay was modified for evaluating TLR7 antagonist.
`C[C@@H]1CN(c2ccc(C#N)c3ncccc23)C[C@@H]2c3ccc(N4CCOC5(CNC5)C4)cc3CN12` [Example 24, 5-[(4R,10bS)-4-methyl-8-(5-oxa-2,8-diazaspiro[3.5]nonan-8-yl)-3,4,6,10b-tetrahydro-1H-pyrazino[2,1-a]isoindol-2-yl]quinoline-8-carbonitrile]: the IC50 was 3.4 nM. Take `C[C@@H]1CN(c2ccc3c(c2)CN2[C@H](C)CN(c4ccc(C#N)n5nccc45)C[C@H]32)CCN1` [Example 97, 4-[(4R,10bS)-4-methyl-8-[(3R)-3-methylpiperazin-1-yl]-3,4,6,10b-tetrahydro-1H-pyrazino[2,1-a]isoindol-2-yl]pyrazolo[1,5-a]pyridine-7-carbonitrile]: the IC50 worked out at 5 nM. On to `C[C@@H]1CN(c2ccc(C#N)c3ncccc23)CC2c3ccc(N4C[C@H](N)[C@@H](O)C4)cc3CN21` (relative stereo) [Example 21, 5-[(4R,10bS)-8-[trans-3-amino-4-hydroxy-pyrrolidin-1-yl]-4-methyl-3,4,6,10b-tetrahydro-1H-pyrazino[2,1-a]isoindol-2-yl]quinoline-8-carbonitrile], for which the IC50 came out at 5.8 nM.

Take `C[C@@H]1CN(c2ccc(C#N)c3ncccc23)C[C@@H]2c3ccc(N4CCOC[C@H](N)C4)cc3CN12` [Example 54A, 5-[(4R,10bS)-8-[(6R)-6-amino-1,4-oxazepan-4-yl]-4-methyl-3,4,6,10b-tetrahydro-1H-pyrazino[2,1-a]isoindol-2-yl]quinoline-8-carbonitrile]: the IC50 worked out at 4.5 nM. For the compound `C[C@@H]1CN(c2ccc(C#N)c3ncccc23)C[C@@H]2c3ccc(C4CCNCC4)cc3CN12` [Example 9, 5-[(4R,10bS)-4-methyl-8-(4-piperidyl)-3,4,6,10b-tetrahydro-1H-pyrazino[2,1-a]isoindol-2-yl]quinoline-8-carbonitrile], the IC50 was < 3.2 nM. As for `C[C@@H]1CN(c2ccc(C#N)c3ncccc23)C[C@@H]2c3ccc(N4CCNC[C@@H]4CO)cc3CN12` [Example 10, 5-[(4R,10bS)-8-[(2R)-2-(hydroxymethyl)piperazin-1-yl]-4-methyl-3,4,6,10b-tetrahydro-1H-pyrazino[2,1-a]isoindol-2-yl]quinoline-8-carbonitrile], the IC50 is < 3.2 nM.

For `COC1CN(c2ccc3c(c2)CN2C3CN(c3ccc(C#N)c4ncccc34)C[C@H]2C)CC1N` (single isomer, unassigned) [Example 16B], the IC50 is 4.5 nM. The value for `C[C@@H]1CN(c2ccc(C#N)c3ncccc23)C[C@@H]2c3ccc(N4CCNCC(C)(O)C4)cc3CN12` (stereo partly drawn) [Example 55, 5-[(4R,10S)-8-(6-hydroxy-6-methyl-1,4-diazepan-1-yl)-4-methyl-3,4,6,10b-tetrahydro-1H-pyrazino[2,1-a]isoindol-2-yl]quinoline-8-carbonitrile] was 6.5 nM. On to `C[C@@H]1CN(c2ccc(C#N)c3ncccc23)C[C@@H]2c3ccc(N4CC5(CNC5)C4)cc3CN12` [Example 36, 5-[(4R,10bS)-8-(2,6-diazaspiro[3.3]heptan-2-yl)-4-methyl-3,4,6,10b-tetrahydro-1H-pyrazino[2,1-a]isoindol-2-yl]quinoline-8-carbonitrile], for which the IC50 turned out to be 3.3 nM.

Turning to `CO[C@@H]1CN(c2ccc3c(c2)CN2[C@H](C)CN(c4ccc(C#N)n5nccc45)C[C@H]32)C[C@H]1N` [Example 94, 4-[(4R,10bS)-8-[(3R,4R)-3-amino-4-methoxy-pyrrolidin-1-yl]-4-methyl-3,4,6,10b-tetrahydro-1H-pyrazino[2,1-a]isoindol-2-yl]pyrazolo[1,5-a]pyridine-7-carbonitrile], the IC50 was determined as 13.7 nM. Turning to `C[C@@H]1CN(c2ccc(C#N)c3ncccc23)C[C@@H]2c3ccc(N4C[C@@H](N)[C@H](O)C4)cc3CN12` (single isomer, unassigned) [Example 40B], the IC50 amounted to 4.3 nM.
